Data taken from patent US8609685B2, “SMAC mimetic compounds as apoptosis inducers” (CISI SCRL, priority 2007, dated 2013).
Where two headings read alike, the source gives them in different places.

Legend:
[1] = target: T1, human XIAP BIR3 domain (Homo sapiens, UniProt P98170); assay: Fluorescence polarization competitive binding, displacement of FITC-SMAC probe from XIAP BIR3-His-tag; conditions: XIAP BIR3, average of three independent measurements
T1 construct: human XIAP BIR3 domain from residue 241 to 356; made in house; host or cells: Escherichia coli BL21
Method: (§1) Data were analyzed using Prism 4.0 software (Graphpad Software).

[2] = target: T2, human XIAP linker-BIR2-BIR3 (Homo sapiens, UniProt P98170); assay: Fluorescence polarization competitive binding, displacement of SMAC-1F probe from XIAP linker-BIR2-BIR3-His-tag; conditions: XIAP linker-BIR2-BIR3, average of three independent measurements
T2 construct: human XIAP from residue 124 to 356 (linker-BIR2-BIR3); made in house; host or cells: Escherichia coli BL21
Method: as §1

[3] = tested on: MDA-MB-231 cells; assay: Standalone cytotoxicity, MTT assay, MDA-MB-231; type: cell-based; conditions: Homo sapiens; for IC50: read-out: IC50 (μM ± standard Deviation); for IC80: read-out: IC80 (μM ± standard Deviation)
Method: Reagents for cell culture were purchased from Sigma unless otherwise indicated below. […] A subcultivation ratio of 1:4 was used.
(§2) The cellular growth inhibitory effect of our compounds was evaluated using the MTT assay (Sigma). After 96 hours of treatment, 10 μl of MTT reagent solution (5 mg of MTT powder/ml diluted in Phosphate Buffer Salt saline solution) were added in each well and allowed to react for 3 hours in the incubator. After 3 hours cells were solubilized in Lysis Buffer (10% SDS/0.1% HCl in water, 100 μl for each well) for 24 hours at 37° C. Finally, the absorbance was measured at 570 nm using a multiplate reader. Absorbance values were collected and IC50/IC80 values were determined using GraphPad Prism 5 software. The experiments were repeated twice.
MDA-MB-231 cells were seeded in 96-well flat bottom cell culture plates at a density of 5000 cells/well in 100 μl of culture medium and allowed to adhere for 24 hours in the incubator. After 24 hours MDA-MB-231 cells were exposed to the compounds at various concentrations for 96 hours in the incubator (50 nM, 100 nM, 200 nM, 500 nM, 1 μM, 5 μM, 10 μM, 50 μM and 100 μM). Each point was done in triplicate.
as §2, with “After” for “The cellular growth inhibitory effect of our compounds was evaluated using the MTT assay (Sigma). After”

[4] = tested on: HL60 cells; assay: Standalone cytotoxicity, WST-1 colorimetric assay, HL60; type: cell-based; conditions: Homo sapiens, HL-60
Method: (§3) All the cell lines were grown at density of 1×10^5 cells per ml and seeded (100 μl of cell suspension/well) on 96-well microtiter plates with or without escalating doses of SMAC-mimic compounds. Cells were incubated at 37° C. in a 5% CO2 fully humidified atmosphere and examined at 24, 48 and 72 hours for cytotoxicity with the WST-1 colorimetric assay. […] Data are expressed as mean percentage of three replicates normalized to the untreated control.

[5] = tested on: K562 cells; assay: Standalone cytotoxicity, WST-1 colorimetric assay, K562; type: cell-based; conditions: Homo sapiens
Method: as §3

[6] = tested on: ARH77 cell line; assay: Standalone cytotoxicity, WST-1 colorimetric assay, ARH77; type: cell-based; conditions: Homo sapiens, ARH-77
Method: as §3, with “HL60 and K562 human cell lines were cultured in RPMI 1640 culture medium supplemented with 10% FBS while the ARH77 and KMS26 cell lines were cultured in IMDM culture medium supplemented with 10% FBS. All” for “All”

[7] = tested on: K562 cells; assay: Combination treatment with cytotoxic agents, WST-1 assay, K562; conditions: Homo sapiens, K562, 72 h, read-out: cell growth/viability, mean percentage normalized to the untreated control
[8] = tested on: KMS26 cell line; assay: Standalone cytotoxicity, WST-1 colorimetric assay, KMS26; type: cell-based; conditions: Homo sapiens, KMS-26
Method: as §3

[9] = tested on: HL60 cells; assay: Combination treatment with cytotoxic agents, WST-1 assay, HL60; type: cell-based; conditions: Homo sapiens, HL-60, 72 h; read-out: cell growth/viability, mean percentage normalized to the untreated control
[10] = target: XIAP (Homo sapiens, UniProt P98170); conditions: background statement; cited from earlier work
Chain of XIAP (P98170 whole entry): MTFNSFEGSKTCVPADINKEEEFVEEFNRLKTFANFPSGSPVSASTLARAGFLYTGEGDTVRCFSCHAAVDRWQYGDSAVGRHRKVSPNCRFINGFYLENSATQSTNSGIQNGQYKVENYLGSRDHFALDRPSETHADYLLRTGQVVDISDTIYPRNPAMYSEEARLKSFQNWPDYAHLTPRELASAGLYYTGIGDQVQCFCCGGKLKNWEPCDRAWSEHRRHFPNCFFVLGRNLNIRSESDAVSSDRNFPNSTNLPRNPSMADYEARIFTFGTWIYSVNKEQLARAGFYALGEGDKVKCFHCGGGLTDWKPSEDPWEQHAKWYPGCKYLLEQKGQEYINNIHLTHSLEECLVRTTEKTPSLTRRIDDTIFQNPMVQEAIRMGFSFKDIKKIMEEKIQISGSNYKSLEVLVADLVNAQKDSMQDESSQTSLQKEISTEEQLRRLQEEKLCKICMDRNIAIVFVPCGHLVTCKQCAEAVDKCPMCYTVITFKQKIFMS

T1 sequence (P98170 241-356): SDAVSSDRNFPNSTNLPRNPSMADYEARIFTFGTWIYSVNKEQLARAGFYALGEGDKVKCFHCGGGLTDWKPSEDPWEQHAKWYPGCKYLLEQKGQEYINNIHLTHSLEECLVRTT
T2 sequence (P98170 124-356): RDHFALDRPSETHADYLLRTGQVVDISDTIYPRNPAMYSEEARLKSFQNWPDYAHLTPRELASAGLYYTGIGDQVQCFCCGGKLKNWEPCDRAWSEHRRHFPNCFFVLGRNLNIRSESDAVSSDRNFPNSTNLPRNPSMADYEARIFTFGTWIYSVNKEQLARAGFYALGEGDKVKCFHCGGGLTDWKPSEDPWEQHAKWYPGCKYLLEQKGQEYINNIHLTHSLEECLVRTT

Molecule: CC[C@H](N)C(=O)N[C@@H]1C(=O)N2[C@@H](CC[C@@H]1CCN)CC[C@H]2C(=O)NC(c1ccccc1)c1ccccc1 [Compound 38a]
- IC50 [1]: 0.324 µM
- IC50 [2]: 0.085 µM
- IC50 ([3]; MDA-MB-231, 96 hours, MTT): 12.9 ± 0.3 µM
- IC80 ([3]; MDA-MB-231, 96 hours, MTT): 33.9 ± 0.7 µM

Molecule: CC[C@H](NC)C(=O)N[C@@H]1C(=O)N2[C@@H](CC[C@@H]1CO)CC[C@H]2C(=O)NC(c1ccccc1)c1ccccc1 [Compound 24g]
- IC50 ([3]; MDA-MB-231, 96 h): 0.237 ± 0.003 µM
- IC80 ([3]; MDA-MB-231, 96 hours, MTT): 0.87 ± 0.004 µM

Molecule: CC[C@H](N)C(=O)N[C@@H]1C(=O)N2[C@@H](CC[C@@H]1CN=[N+]=[N-])CC[C@H]2C(=O)NC(c1ccccc1)c1ccccc1 [Compound 25a]
- IC50 ([4]; HL60, 24 hrs): > 10 µM
- IC50 ([4]; HL60, 48 hrs): 3.32 µM
- IC50 ([4]; HL60, 72 hrs): 0.0018 µM
- IC50 ([5]; K562, 24 hrs): 4.78 µM
- IC50 ([5]; K562, 48 hrs): 3.95 µM
- IC50 ([5]; K562, 72 hrs): 2.13 µM

Molecule: CC[C@H](N)C(=O)N[C@@H]1C(=O)N2[C@@H](CC[C@@H]1Cn1cc(CO[C@H](C)[C@H](NC(=O)[C@H](C)NC)C(=O)N3CCC[C@H]3Cn3nnnc3Sc3ccccc3)nn1)CC[C@H]2C(=O)NC(c1ccccc1)c1ccccc1 [Compound 44a]
- IC50 ([6]; ARH77, 24 hrs): > 10 µM
- IC50 ([6]; ARH77, 48 hrs): > 10 µM
- IC50 ([6]; ARH77, 72 hrs): > 10 µM
- IC50 ([3]; MDA-MB-231, 96 hours, MTT): 0.168 ± 0.002 µM
- IC80 ([3]; MDA-MB-231, 96 hours, MTT): 0.288 ± 0.003 µM
- viability at 0.0001 µM [7]: 89%

Molecule: CC[C@H](NC)C(=O)N[C@@H]1C(=O)N2[C@@H](CC[C@@H]1CCN)CC[C@H]2C(=O)NC(c1ccccc1)c1ccccc1 [Compound 38d]
- IC50 ([3]; MDA-MB-231, 96 h): 2.3 ± 1.2 µM
- IC80 ([3]; MDA-MB-231, 96 hours, MTT): 14.8 ± 1 µM

Molecule: CC[C@H](N)C(=O)N[C@@H]1C(=O)N2[C@@H](CC[C@@H]1CN)CC[C@H]2C(=O)NC(c1ccccc1)c1ccccc1 [Compound 26a]
- IC50 ([5]; K562, 24 hrs): 0.593 µM
- IC50 ([5]; K562, 48 hrs): 6e-05 µM
- IC50 ([5]; K562, 72 hrs): 8e-05 µM
- IC50 ([6]; ARH77, 24 hrs): > 10 µM
- IC50 ([6]; ARH77, 48 hrs): > 10 µM
- IC50 ([6]; ARH77, 72 hrs): > 10 µM
- IC50 ([8]; KMS26, 24 hrs): > 10000 nM
- IC50 ([8]; KMS26, 48 hrs): 0.002 nM
- IC50 ([8]; KMS26, 72 hrs): 62.3 nM

Molecule: CC(=O)O[C@H]1C(=O)[C@@]2(C)[C@H]([C@H](OC(=O)c3ccccc3)[C@]3(O)C[C@H](OC(=O)[C@H](O)[C@@H](NC(=O)c4ccccc4)c4ccccc4)C(C)=C1C3(C)C)[C@]1(OC(C)=O)CO[C@@H]1C[C@@H]2O [Taxol, taxol, reference compound]
- viability at 0.1 µM [7]: 69%

Molecule: CC[C@H](N)C(=O)N[C@@H]1C(=O)N2[C@@H](CC[C@@H]1CO)CC[C@H]2C(=O)NC(c1ccccc1)c1ccccc1 [Compound 24a]
- IC50 ([4]; HL60, 24 hrs): > 10 µM
- IC50 ([5]; K562, 24 hrs): > 10 µM
- IC50 ([5]; K562, 48 hrs): > 10 µM
- IC50 ([5]; K562, 72 hrs): > 10 µM
- IC50 ([6]; ARH77, 24 hrs): > 10 µM
- IC50 ([6]; ARH77, 48 hrs): > 10 µM
- IC50 ([6]; ARH77, 72 hrs): > 10 µM
- IC50 ([8]; KMS26, 24 hrs): > 10000 nM
- viability at 0.01 µM [9]: 110%
- IC80 ([3]; MDA-MB-231, 96 hours, MTT): 3.9 ± 0.07 µM
- viability at 0.05 µM [7]: 90%

Molecule: CC[C@H](N)C(=O)N[C@@H]1C(=O)N2[C@@H](CC[C@@H]1COC(C)=O)CC[C@H]2C(=O)NC(c1ccccc1)c1ccccc1 [Compound 30a]
- IC50 ([4]; HL60, 24 hrs): > 10 µM
- IC50 ([4]; HL60, 48 hrs): 1.79 µM
- IC50 ([4]; HL60, 72 hrs): 0.623 µM
- IC50 ([5]; K562, 24 hrs): > 10 µM
- IC50 ([5]; K562, 48 hrs): > 10 µM
- IC50 ([5]; K562, 72 hrs): > 10 µM

Molecule: CC[C@H](N)C(=O)N[C@@H]1C(=O)N2C(CC[C@@H]1CNC(=O)CCC#CC#CCCC(=O)NC[C@H]1CC[C@H]3CC[C@@H](C(=O)NC(c4ccccc4)c4ccccc4)N3C(=O)[C@H]1NC(=O)[C@@H](N)CC)CC[C@H]2C(=O)NC(c1ccccc1)c1ccccc1 (some centres unmarked) [Compound 46a]
- IC50 ([3]; MDA-MB-231, 96 hours, MTT): 0.116 ± 0.002 µM
- IC80 ([3]; MDA-MB-231, 96 hours, MTT): 0.17 ± 0.002 µM

B1: mature Smac protein: mature Smac/DIABLO protein, endogenous inhibitor of XIAP (protein, UniProt Q9NR28 22-239, looked up)
Diablo IAP-binding …: LCVPVVANFKKRCFSELIRPWHKTVTIGFGVTLCAVPIAQKSEPHSLSSEALMRRAVSLVTDSTSTFLSQTTYALIEAITEYTKAVYTLTSLYRQYTSLLGKMNSEEEDEVWQVIIGARAEMTSKHQEYLKLETTWMTAVGLSEMAAEAAYQTGADQASITARNHIQLVKLQVEEVHQLSRKAETKLAEAQIEELRQKTQEEGEERAESEQEAYLRED
- Kd [10]: 0.42 µM
